Patent US12077503B2, “Substituted cyclic amides and their use as herbicides” (FMC CORPORATION, priority 2015, dated 2024)

Key:
Format in all cases: in vivo
Kochia (Kochia scoparia) [1] = assay: Test A preemergence; conditions: Bassia scoparia, pre-emergence, 240 h, 0 to 100 scale where 0 is no effect and 100 is complete control, read-out: Kochia plant response rating; for pest or weed control at 31 g/ha: 31 g ai/ha, Preemergence; for pest or weed control at 125 g/ha: 125 g ai/ha, preemergence, approx. 10 d
Method in brief: (§1)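 Preemergence soil spray on seeded pots or post-emergence spray on 1–2 leaf plants, in loam–sand blend. Greenhouse ~10 d. Visual rating 0–100 against untreated plants.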

[2] = test system: barnyardgrass (Echinochloa crus-galli); assay: Test A preemergence; conditions: Echinochloa crus-galli, pre-emergence, 240 h, 0 to 100 scale where 0 is no effect and 100 is complete control, read-out: Barnyardgrass plant response rating; for pest or weed control at 31 g/ha: 31 g ai/ha, Preemergence; for pest or weed control at 125 g/ha: 125 g ai/ha, preemergence, approx. 10 d
Method in brief: as §1

[3] = test system: giant foxtail (Setaria faberii); assay: Test A preemergence; conditions: Setaria faberi, pre-emergence, 240 h, 0 to 100 scale where 0 is no effect and 100 is complete control, read-out: Foxtail, Giant plant response rating; for pest or weed control at 31 g/ha: 31 g ai/ha, Preemergence; for pest or weed control at 125 g/ha: 125 g ai/ha, preemergence, approx. 10 d
Method in brief: as §1

[4] = test system: pigweed (Amaranthus retroflexus); assay: Test A preemergence; conditions: Amaranthus retroflexus, pre-emergence, 240 h, 0 to 100 scale where 0 is no effect and 100 is complete control, read-out: Pigweed plant response rating; for pest or weed control at 31 g/ha: 31 g ai/ha, Preemergence; for pest or weed control at 125 g/ha: 125 g ai/ha, preemergence, approx. 10 d
[5] = test system: ragweed (common ragweed, Ambrosia elatior); assay: Test A preemergence; conditions: Ambrosia artemisiifolia, pre-emergence, 240 h, 0 to 100 scale where 0 is no effect and 100 is complete control, read-out: Ragweed plant response rating; for pest or weed control at 31 g/ha: 31 g ai/ha, Preemergence; for pest or weed control at 125 g/ha: 125 g ai/ha, preemergence, approx. 10 d
Method in brief: as §1

[6] = test system: ryegrass, Italian (Italian ryegrass, Lolium multiflorum); assay: Test A preemergence; conditions: Lolium multiflorum, pre-emergence, 240 h, 0 to 100 scale where 0 is no effect and 100 is complete control, read-out: Ryegrass, Italian plant response rating; for pest or weed control at 31 g/ha: 31 g ai/ha, Preemergence; for pest or weed control at 125 g/ha: 125 g ai/ha, preemergence, approx. 10 d
Method in brief: as §1

Kochia (Kochia scoparia) [7] = assay: Test A postemergence; conditions: Bassia scoparia, post-emergence, 240 h; for pest or weed control at 125 g/ha: 125 g ai/ha, postemergence, visual injury on 0 to 100 scale (0 no effect, 100 complete control), approx. 10 d, read-out: Kochia plant response rating; for pest or weed control at 31 g/ha: Postemergence, 31 g ai/ha, visual injury after approx. 10 d, 0 to 100 scale, 0 no effect, 100 complete control, read-out: Plant response rating, Kochia
Method in brief: as §1

[8] = test system: barnyardgrass (Echinochloa crus-galli); assay: Test A postemergence; conditions: Echinochloa crus-galli, post-emergence, 240 h; for pest or weed control at 125 g/ha: 125 g ai/ha, postemergence, visual injury on 0 to 100 scale (0 no effect, 100 complete control), approx. 10 d, read-out: Barnyardgrass plant response rating; for pest or weed control at 31 g/ha: Postemergence, 31 g ai/ha, visual injury after approx. 10 d, 0 to 100 scale, 0 no effect, 100 complete control, read-out: Plant response rating, Barnyardgrass
Method in brief: as §1

[9] = test system: blackgrass (Alopecurus myosuroides); assay: Test A postemergence; conditions: Alopecurus myosuroides, post-emergence, 240 h; for pest or weed control at 125 g/ha: 125 g ai/ha, postemergence, visual injury on 0 to 100 scale (0 no effect, 100 complete control), approx. 10 d, read-out: Blackgrass plant response rating; for pest or weed control at 31 g/ha: Postemergence, 31 g ai/ha, visual injury after approx. 10 d, 0 to 100 scale, 0 no effect, 100 complete control, read-out: Plant response rating, Blackgrass
Method in brief: as §1

corn (Zea mays) = assay: Test A postemergence; conditions: Zea mays, post-emergence, 240 h; for plant injury at 125 g/ha: 125 g ai/ha, postemergence, visual injury on 0 to 100 scale (0 no effect, 100 complete control), approx. 10 d, read-out: Corn plant response rating; for Corn plant response rating (crop injury, 0 = no effect, 100 = complete kill) at 31 g/ha: Postemergence, 31 g ai/ha, visual injury after approx. 10 d, 0 to 100 scale, 100 complete control
Method in brief: as §1

[10] = test system: giant foxtail (Setaria faberii); assay: Test A postemergence; conditions: Setaria faberi, post-emergence, 240 h; for pest or weed control at 125 g/ha: 125 g ai/ha, postemergence, visual injury on 0 to 100 scale (0 no effect, 100 complete control), approx. 10 d, read-out: Foxtail, Giant plant response rating; for pest or weed control at 31 g/ha: Postemergence, 31 g ai/ha, visual injury after approx. 10 d, 0 to 100 scale, 0 no effect, 100 complete control, read-out: Plant response rating, Foxtail, Giant
Method in brief: as §1

[11] = test system: pigweed (Amaranthus retroflexus); assay: Test A postemergence; conditions: Amaranthus retroflexus, post-emergence, 240 h; for pest or weed control at 125 g/ha: 125 g ai/ha, postemergence, visual injury on 0 to 100 scale (0 no effect, 100 complete control), approx. 10 d, read-out: Pigweed plant response rating; for pest or weed control at 31 g/ha: Postemergence, 31 g ai/ha, visual injury after approx. 10 d, 0 to 100 scale, 0 no effect, 100 complete control, read-out: Plant response rating, Pigweed
Method in brief: as §1

[12] = test system: ragweed (common ragweed, Ambrosia elatior); assay: Test A postemergence; conditions: Ambrosia artemisiifolia, post-emergence, 240 h; for pest or weed control at 125 g/ha: 125 g ai/ha, postemergence, visual injury on 0 to 100 scale (0 no effect, 100 complete control), approx. 10 d, read-out: Ragweed plant response rating; for pest or weed control at 31 g/ha: Postemergence, 31 g ai/ha, visual injury after approx. 10 d, 0 to 100 scale, 0 no effect, 100 complete control, read-out: Plant response rating, Ragweed
Method in brief: as §1

[13] = test system: ryegrass, Italian (Italian ryegrass, Lolium multiflorum); assay: Test A postemergence; conditions: Lolium multiflorum, post-emergence, 240 h; for pest or weed control at 125 g/ha: 125 g ai/ha, postemergence, visual injury on 0 to 100 scale (0 no effect, 100 complete control), approx. 10 d, read-out: Ryegrass, Italian plant response rating; for pest or weed control at 31 g/ha: Postemergence, 31 g ai/ha, visual injury after approx. 10 d, 0 to 100 scale, 0 no effect, 100 complete control, read-out: Plant response rating, Ryegrass, Italian
Method in brief: as §1

[14] = test system: wheat (Triticum aestivum); assay: Test A postemergence; conditions: Triticum aestivum, post-emergence, 240 h; for plant injury at 125 g/ha: 125 g ai/ha, postemergence, visual injury on 0 to 100 scale (0 no effect, 100 complete control), approx. 10 d, read-out: Wheat plant response rating; for plant injury at 31 g/ha: Postemergence, 31 g ai/ha, visual injury after approx. 10 d, 0 to 100 scale, 0 no effect, 100 complete control, read-out: Plant response rating, Wheat
Method in brief: as §1

[15] = test system: barnyardgrass (Echinochloa crus-galli); assay: Test B flooded paddy test; conditions: Echinochloa crus-galli, 250 g ai/ha, Flood; 0 to 100 scale where 0 is no effect and 100 is complete control; read-out: Barnyardgrass plant response rating
Method in brief: (§2)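 Rating scale 0–100 (visual, vs untreated controls) after a 13–15 d greenhouse period; application to the flood layer, 3 cm above soil and maintained; plants at 2-leaf stage when treated.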

[16] = test system: ducksalad (Heteranthera limosa); assay: Test B flooded paddy test; conditions: Heteranthera limosa, 250 g ai/ha, Flood; 0 to 100 scale where 0 is no effect and 100 is complete control; read-out: Ducksalad plant response rating
Method in brief: as §2

rice (Oryra sativa) = assay: Test B flooded paddy test; conditions: Oryza sativa, 250 g ai/ha, Flood; 0 to 100 scale where 0 is no effect and 100 is complete control; read-out: Rice plant response rating
Method in brief: as §2

[17] = test system: sedge, umbrella (small-flower umbrella sedge, Cyperus difformis); assay: Test B flooded paddy test; conditions: Cyperus difformis, 250 g ai/ha, Flood; 0 to 100 scale where 0 is no effect and 100 is complete control; read-out: Sedge, Umbrella plant response rating
Method in brief: as §2

Structure (SMILES)	pest or weed control at 31 g/ha (Kochia (Kochia scoparia) [1])	pest or weed control at 125 g/ha (Kochia (Kochia scoparia) [1])	pest or weed control at 31 g/ha [2]	pest or weed control at 125 g/ha [2]	pest or weed control at 31 g/ha [3]	pest or weed control at 125 g/ha [3]	pest or weed control at 31 g/ha [4]	pest or weed control at 125 g/ha [4]	pest or weed control at 31 g/ha [5]	pest or weed control at 125 g/ha [5]	pest or weed control at 31 g/ha [6]	pest or weed control at 125 g/ha [6]	pest or weed control at 125 g/ha (Kochia (Kochia scoparia) [7])	pest or weed control at 31 g/ha (Kochia (Kochia scoparia) [7])	pest or weed control at 125 g/ha [8]	pest or weed control at 31 g/ha [8]	pest or weed control at 125 g/ha [9]	pest or weed control at 31 g/ha [9]	plant injury at 125 g/ha (corn (Zea mays))	Corn plant response rating (crop injury, 0 = no effect, 100 = complete kill) at 31 g/ha (corn (Zea mays))	other results
CSc1ccccc1NC(=O)[C@H]1C(=O)N(C)C[C@@H]1c1ccc(F)c(OC(C)C)c1 [Compound 1076]	0%	0%	0%	90%	80%	100%	0%	20%	10%	0%	0%	0%	0%	0%	50%	0%	20%	0%	0%	0%	pest or weed control at 125 g/ha [10]: 50%; pest or weed control at 31 g/ha [10]: 0%; pest or weed control at 125 g/ha [11]: 0%; pest or weed control at 31 g/ha [11]: 0%; pest or weed control at 125 g/ha [12]: 0%; pest or weed control at 31 g/ha [12]: 0%; pest or weed control at 125 g/ha [13]: 0%; pest or weed control at 31 g/ha [13]: 0%; plant injury at 125 g/ha [14]: 0%; plant injury at 31 g/ha [14]: 0%; pest or weed control at 250 g/ha [15]: 20%; pest or weed control at 250 g/ha [16]: 90%; pest or weed control at 250 g/ha (rice (Oryra sativa)): 40%; pest or weed control at 250 g/ha [17]: 0%
Cc1c(F)cccc1NC(=O)[C@H]1C(=O)N(C)C[C@@H]1c1cc(C(F)F)cs1 [Compound 1089]	0%	20%	90%	90%	100%	100%	0%	0%	0%	60%	0%	10%	0%	0%	90%	60%	30%	0%	30%	0%	pest or weed control at 125 g/ha [10]: 90%; pest or weed control at 31 g/ha [10]: 80%; pest or weed control at 125 g/ha [11]: 0%; pest or weed control at 31 g/ha [11]: 0%; pest or weed control at 125 g/ha [12]: 20%; pest or weed control at 31 g/ha [12]: 0%; pest or weed control at 125 g/ha [13]: 0%; pest or weed control at 31 g/ha [13]: 0%; plant injury at 125 g/ha [14]: 30%; plant injury at 31 g/ha [14]: 0%; pest or weed control at 250 g/ha [15]: 90%; pest or weed control at 250 g/ha [16]: 85%; pest or weed control at 250 g/ha (rice (Oryra sativa)): 0%; pest or weed control at 250 g/ha [17]: 0%
